Test results reported in US9133148B2, “Carbamate compounds and of making and using same” (Abide Therapeutics, Inc., priority 2012, dated 2015).

Key:
Assay type in all cases: biochemical
[1] = molecular target: MAGL (Mus musculus (Mouse), UniProt O35678); test: Competitive ABPP, % inhibition at 1 uM, MAGL
Protocol: (§1) In Vitro Competitive Activity-Based Protein Profiling.
(§2) Proteomes (mouse brain membrane fraction or cell lysates) ([…], 1.0 mg/mL total protein concentration) were preincubated with varying concentrations of inhibitors at 37° C. After 30 min, FP-Rh (1.0 μL, 50 μM in DMSO) was added and the mixture was incubated for another 30 min at 37° C. Reactions were quenched with SDS loading buffer (50 μL—4×) and run on SDS-PAGE.

[2] = molecular target: FAAH (Mus musculus (Mouse), UniProt O08914); test: Competitive ABPP, % inhibition at 1 uM, FAAH
Protocol: as §1
as §2, with “SDS-PAGE. Following gel imaging, serine hydrolase activity was determined by measuring fluorescent intensity of gel bands corresponding to MAGL, ABHD6 and FAAH using ImageJ 1.43u software.” for “SDS-PAGE.”

[3] = molecular target: ABHD6 (Mus musculus (Mouse), UniProt Q8R2Y0); test: Competitive ABPP, % inhibition at 1 uM, ABHD6
Protocol: as §1, §2

Sequence of MAGL (O35678 whole entry): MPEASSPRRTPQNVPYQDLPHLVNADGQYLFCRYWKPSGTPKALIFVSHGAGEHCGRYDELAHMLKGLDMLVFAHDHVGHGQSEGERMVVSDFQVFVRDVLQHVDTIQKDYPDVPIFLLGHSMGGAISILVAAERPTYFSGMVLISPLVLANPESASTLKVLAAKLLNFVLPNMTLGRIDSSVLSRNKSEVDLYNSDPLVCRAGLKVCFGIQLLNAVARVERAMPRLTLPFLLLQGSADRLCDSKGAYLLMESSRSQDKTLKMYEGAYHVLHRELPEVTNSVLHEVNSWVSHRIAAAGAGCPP
Sequence of ABHD6 (Q8R2Y0 whole entry): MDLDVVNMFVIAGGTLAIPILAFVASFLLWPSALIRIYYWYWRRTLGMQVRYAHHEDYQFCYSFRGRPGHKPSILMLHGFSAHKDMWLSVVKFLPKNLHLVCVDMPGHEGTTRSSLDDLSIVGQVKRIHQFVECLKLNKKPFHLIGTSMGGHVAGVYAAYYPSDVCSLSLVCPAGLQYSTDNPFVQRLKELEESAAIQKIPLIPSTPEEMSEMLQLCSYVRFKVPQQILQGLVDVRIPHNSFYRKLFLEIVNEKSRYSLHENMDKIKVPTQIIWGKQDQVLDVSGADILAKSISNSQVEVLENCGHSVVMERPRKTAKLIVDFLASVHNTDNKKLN
Sequence of FAAH (O08914 whole entry): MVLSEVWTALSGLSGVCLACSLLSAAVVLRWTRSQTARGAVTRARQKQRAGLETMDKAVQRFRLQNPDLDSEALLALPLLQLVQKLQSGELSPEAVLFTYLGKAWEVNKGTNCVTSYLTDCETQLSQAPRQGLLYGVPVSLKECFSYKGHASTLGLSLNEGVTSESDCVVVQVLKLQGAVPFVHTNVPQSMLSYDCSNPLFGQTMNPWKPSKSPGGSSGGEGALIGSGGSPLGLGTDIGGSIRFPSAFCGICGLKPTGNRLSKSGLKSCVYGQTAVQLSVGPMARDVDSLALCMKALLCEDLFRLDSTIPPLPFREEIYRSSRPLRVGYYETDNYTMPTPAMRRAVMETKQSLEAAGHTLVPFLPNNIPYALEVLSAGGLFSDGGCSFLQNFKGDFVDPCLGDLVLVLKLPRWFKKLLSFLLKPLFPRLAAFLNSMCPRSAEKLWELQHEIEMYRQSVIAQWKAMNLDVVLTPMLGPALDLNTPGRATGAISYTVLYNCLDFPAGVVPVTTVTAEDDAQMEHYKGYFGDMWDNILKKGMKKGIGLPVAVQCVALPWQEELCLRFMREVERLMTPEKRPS

Compound | inhibition at 1 µM [1] [%] | inhibition at 1 µM [2] [%] | inhibition at 1 µM [3] [%]
C[C@@H]1CN(Cc2ccc(N3CCOCC3)cc2C(F)(F)F)CCN1C(=O)OC(C(F)(F)F)C(F)(F)F [Example 9l, 1,1,1,3,3,3-hexafluoropropan-2-yl(2R)-2-methyl-4-[[4-(morpholin-4-yl)-2-(trifluoromethyl)phenyl]methyl]piperazine-1-carboxylate] | < 25 | < 25 | < 25
O=C(OC(C(F)(F)F)C(F)(F)F)N1CCN(Cc2ccc(-c3cccc(F)c3)cc2F)CC1 [Example 11o, 1,1,1,3,3,3-hexafluoropropan-2-yl 4-[[2-fluoro-4-(3-fluorophenyl)phenyl]methyl]piperazine-1-carboxylate] | > 75 | < 25 | 25 to 75
O=C(OC(C(F)(F)F)C(F)(F)F)N1CCN(Cc2ccc(N3CCOCC3)cc2C(F)(F)F)CC1 [Example 9aj, 1,1,1,3,3,3-hexafluoropropan-2-yl 4-[[4-(morpholin-4-yl)-2-(trifluoromethyl)phenyl]methyl]piperazine-1-carboxylate] | 25 to 75 | < 25 | 25 to 75
O=C(OC(C(F)(F)F)C(F)(F)F)N1CCN(Cc2c(Cl)cccc2N2CCCC2)CC1 [Example 9m, 1,1,1,3,3,3-hexafluoropropan-2-yl 4-[[2-chloro-6-(pyrrolidin-1-yl)phenyl]methyl]piperazine-1-carboxylate] | 25 to 75 | < 25 | 25 to 75
CC1CN(C(=O)OC(C(F)(F)F)C(F)(F)F)CCN1C(c1ccc(Cl)cc1)c1ccc(Cl)cc1 (stereo not drawn) [Example 2h, 1,1,1,3,3,3-hexafluoropropan-2-yl 4-[bis(4-chlorophenyl)methyl]-3-methylpiperazine-1-carboxylate] | 25 to 75 | < 25 | 25 to 75
Cc1nc(-c2cccc(F)c2)ccc1CN1CCN(C(=O)OC(C(F)(F)F)C(F)(F)F)CC1 [Example 11e, 1,1,1,3,3,3-hexafluoropropan-2-yl 4-[[6-(3-fluorophenyl)-2-methylpyridin-3-yl]methyl]piperazine-1-carboxylate] | > 75 | < 25 | 25 to 75
Cc1nc(CN2CCN(C(=O)OC(C(F)(F)F)C(F)(F)F)CC2)ccc1-c1cccc(F)c1 [Example 11w, 1,1,1,3,3,3-hexafluoropropan-2-yl 4-[[5-(3-fluorophenyl)-6-methylpyridin-2-yl]methyl]piperazine-1-carboxylate] | > 75 | < 25 | 25 to 75
O=C(OC(C(F)(F)F)C(F)(F)F)N1CCN(Cc2ccc(N3CCOCC3)cc2OC(F)(F)F)CC1 [Example 9ak, 1,1,1,3,3,3-hexafluoropropan-2-yl 4-[[4-(morpholin-4-yl)-2-(trifluoromethoxy)phenyl]methyl]piperazine-1-carboxylate] | > 75 | < 25 | 25 to 75
C[C@@H]1CN(Cc2ccc(N3CCOCC3)cc2F)CCN1C(=O)OC(C(F)(F)F)C(F)(F)F [Example 9k, 1,1,1,3,3,3-hexafluoropropan-2-yl(2R)-4-[[2-fluoro-4-(morpholin-4-yl)phenyl]methyl]-2-methylpiperazine-1-carboxylate] | < 25 | < 25 | < 25
Cc1cc(-c2ccc(CN3CCN(C(=O)OC(C(F)(F)F)C(F)(F)F)CC3)c(F)c2)ccn1 [Example 11g, 1,1,1,3,3,3-hexafluoropropan-2-yl 4-[[2-fluoro-4-(2-methylpyridin-4-yl)phenyl]methyl]piperazine-1-carboxylate] | > 75 | < 25 | > 75
CC1CN(C(=O)OC(C(F)(F)F)C(F)(F)F)CCN1Cc1ccc(-c2ccccc2)cc1 (stereo not drawn) [Example 11a, 1,1,1,3,3,3-hexafluoropropan-2-yl 3-methyl-4-[(4-phenylphenyl)methyl]piperazine-1-carboxylate] | 25 to 75 | < 25 | 25 to 75
Cc1ncccc1-c1ccc(CN2CCN(C(=O)OC(C(F)(F)F)C(F)(F)F)CC2)c(F)c1 [Example 11t, 1,1,1,3,3,3-hexafluoropropan-2-yl 4-[[2-fluoro-4-(2-methylpyridin-3-yl)phenyl]methyl]piperazine-1-carboxylate] | > 75 | < 25 | 25 to 75
Cc1cnccc1-c1ccc(CN2CCN(C(=O)OC(C(F)(F)F)C(F)(F)F)CC2)c(F)c1 [Example 11ab, 1,1,1,3,3,3-hexafluoropropan-2-yl 4-[[2-fluoro-4-(3-methylpyridin-4-yl)phenyl]methyl]piperazine-1-carboxylate] | > 75 | < 25 | 25 to 75
Cc1nc(-c2ccccc2F)ccc1CN1CCN(C(=O)OC(C(F)(F)F)C(F)(F)F)CC1 [Example 11c, 1,1,1,3,3,3-hexafluoropropan-2-yl 4-[[6-(2-fluorophenyl)-2-methylpyridin-3-yl]methyl]piperazine-1-carboxylate] | 25 to 75 | < 25 | 25 to 75
Cc1cc(-c2ccc(CN3CCN(C(=O)OC(C(F)(F)F)C(F)(F)F)CC3)c(C)c2)cc(C)n1 [Example 11m, 1,1,1,3,3,3-hexafluoropropan-2-yl 4-[[4-(2,6-dimethylpyridin-4-yl)-2-methylphenyl]methyl]piperazine-1-carboxylate] | 25 to 75 | < 25 | 25 to 75
CC(C)c1cc(N2CCOCC2)ccc1CN1CCN(C(=O)OC(C(F)(F)F)C(F)(F)F)CC1 [Example 9bc, 1,1,1,3,3,3-hexafluoropropan-2-yl 4-[[4-(morpholin-4-yl)-2-(propan-2-yl)phenyl]methyl]piperazine-1-carboxylate] | 25 to 75 | < 25 | < 25
Cc1cccc(-c2ccc(CN3CCN(C(=O)OC(C(F)(F)F)C(F)(F)F)CC3)c(C)c2)n1 [Example 11z, 1,1,1,3,3,3-hexafluoropropan-2-yl 4-[[2-methyl-4-(6-methylpyridin-2-yl)phenyl]methyl]piperazine-1-carboxylate] | 25 to 75 | < 25 | 25 to 75
Cc1cccc(-c2ccc(CN3CCN(C(=O)OC(C(F)(F)F)C(F)(F)F)CC3)c(F)c2)n1 [Example 11ac, 1,1,1,3,3,3-hexafluoropropan-2-yl 4-[[2-fluoro-4-(6-methylpyridin-2-yl)phenyl]methyl]piperazine-1-carboxylate] | > 75 | < 25 | 25 to 75
Cc1nc(CN2CCN(C(=O)OC(C(F)(F)F)C(F)(F)F)CC2)ccc1-c1ccccc1F [Example 11v, 1,1,1,3,3,3-hexafluoropropan-2-yl 4-[[5-(2-fluorophenyl)-6-methyl-pyridin-2-yl]methyl]piperazine-1-carboxylate] | > 75 | < 25 | > 75
CC(C)c1cc(-c2ccccc2)ccc1CN1CCN(C(=O)OC(C(F)(F)F)C(F)(F)F)CC1 [Example 9at, 1,1,1,3,3,3-hexafluoropropan-2-yl 4-((3-isopropyl-[1,1′-biphenyl]-4-yl)methyl)piperazine-1-carboxylate] | 25 to 75 | < 25 | < 25
O=C(OC(C(F)(F)F)C(F)(F)F)N1CCN(Cc2ccc(-c3cccc(F)c3)cn2)CC1 [Example 11k, 1,1,1,3,3,3-hexafluoropropan-2-yl 4-[[5-(3-fluorophenyl)pyridin-2-yl]methyl]piperazine-1-carboxylate] | > 75 | < 25 | 25 to 75
Cc1cc(-c2ccc(CN3CCN(C(=O)OC(C(F)(F)F)C(F)(F)F)CC3)c(F)c2)cc(C)n1 [Example 11aa, 1,1,1,3,3,3-hexafluoropropan-2-yl 4-[[4-(2,6-dimethylpyridin-4-yl)-2-fluorophenyl]methyl]piperazine-1-carboxylate] | > 75 | < 25 | 25 to 75
Cc1cc(-c2ccc(CN3CCN(C(=O)OC(C(F)(F)F)C(F)(F)F)CC3)c(C)c2)ccn1 [Example 11i, 1,1,1,3,3,3-hexafluoropropan-2-yl 4-[[2-methyl-4-(2-methylpyridin-4-yl)phenyl]methyl]piperazine-1-carboxylate] | 25 to 75 | < 25 | 25 to 75
Cc1cccc(-c2ccc(CN3CCN(C(=O)OC(C(F)(F)F)C(F)(F)F)CC3)c(C)n2)c1 [Example 11d, 1,1,1,3,3,3-hexafluoropropan-2-yl 4-[[2-methyl-6-(3-methylphenyl)pyridin-3-yl]methyl]piperazine-1-carboxylate] | > 75 | < 25 | 25 to 75
Cc1ccccc1-c1ccc(CN2CCN(C(=O)OC(C(F)(F)F)C(F)(F)F)CC2)nc1C [Example 11u, 1,1,1,3,3,3-hexafluoropropan-2-yl 4-[[6-methyl-5-(2-methylphenyl)pyridin-2-yl]methyl]piperazine-1-carboxylate] | 25 to 75 | < 25 | 25 to 75
